Measurements reported in ChEMBL document CHEMBL1201862, “PubChem BioAssay data set” (2004).
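Tested at 5 concentrations; 48 h exposure; 96-well plates; endpoints linearly interpolated, else capped at highest concentration. GI50 marks 50% less growth.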 Activity calls are given as the source filed them. Cut-off read from the data, not from the text of the source: active = GI50 up to about 1.1 µM and inactive = higher.

Experiments:
Test in all cases: DTP human tumour cell line panel, 48 h
COLO 205 = tested on: COLO 205
U-251 = tested on: U-251
SF-539 = tested on: SF-539
HOP-62 = tested on: HOP-62
A549 = tested on: A549
DMS-273 = tested on: DMS-273
NCI-H226 = tested on: NCI-H226
SN12C = tested on: SN12C
SK-OV-3 = tested on: SK-OV-3
UACC-62 = tested on: UACC-62
KM12 = tested on: KM12
OVCAR-3 = tested on: OVCAR-3
SK-MEL-28 = tested on: SK-MEL-28
HCC 2998 = tested on: HCC 2998
UACC-257 = tested on: UACC-257
DU-145 = tested on: DU-145
NCI/ADR-RES = tested on: NCI/ADR-RES
Hs-578T = tested on: Hs-578T
MDA-MB-435 = tested on: MDA-MB-435
BT-549 = tested on: BT-549

| SMILES | GI50 (COLO 205) | GI50 (U-251) | GI50 (SF-539) | GI50 (HOP-62) | GI50 (A549) | GI50 (DMS-273) | GI50 (NCI-H226) | GI50 (SN12C) | GI50 (SK-OV-3) | GI50 (UACC-62) | GI50 (KM12) | GI50 (OVCAR-3) | GI50 (SK-MEL-28) | GI50 (HCC 2998) | GI50 (UACC-257) | GI50 (DU-145) | GI50 (NCI/ADR-RES) | GI50 (Hs-578T) | GI50 (MDA-MB-435) | GI50 (BT-549) |
| --- | --- | --- | --- | --- | --- | --- | --- | --- | --- | --- | --- | --- | --- | --- | --- | --- | --- | --- | --- | --- |
| NC(=O)c1coc(C2OC(CO)C(O)C2O)n1 (stereo not drawn) | > 100 µM (inactive) | > 100 µM (inactive) | > 100 µM (inactive) | > 100 µM (inactive) | > 100 µM (inactive) | > 100 µM (inactive) | > 100 µM (inactive) | > 100 µM (inactive) | > 100 µM (inactive) | > 100 µM (inactive) | > 100 µM (inactive) | > 100 µM (inactive) | > 100 µM (inactive) | > 100 µM (inactive) | – | – | – | – | – | – |
| COc1ccc(-c2nc(N)nc(-c3cc(C)ccc3O)c2Cl)cc1 | > 100 µM (inactive) | 39.6 µM (inactive) | 31.7 µM (inactive) | 41.7 µM (inactive) | 64.1 µM (inactive) | 43.7 µM (inactive) | > 100 µM (inactive) | 76.7 µM (inactive) | 29.9 µM (inactive) | 29 µM (inactive) | 65.5 µM (inactive) | 30.6 µM (inactive) | 47.6 µM (inactive) | > 100 µM (inactive) | > 100 µM (inactive) | – | – | – | – | – |
| COC(=O)C(C(=O)C(=O)Nc1nnc(S)[nH]1)c1csc(N)n1 (stereo not drawn) | > 100 µM (inactive) | > 100 µM (inactive) | > 100 µM (inactive) | > 100 µM (inactive) | > 100 µM (inactive) | > 100 µM (inactive) | > 100 µM (inactive) | > 100 µM (inactive) | > 100 µM (inactive) | > 100 µM (inactive) | > 100 µM (inactive) | > 100 µM (inactive) | > 100 µM (inactive) | > 100 µM (inactive) | > 100 µM (inactive) | – | – | – | – | – |
| O=C1OC(c2cccc(C(F)(F)F)c2)c2ccc3ccccc3c21 (stereo not drawn) | > 10 µM (inactive) | 7.59 µM (inactive) | > 100 µM (inactive) | > 10 µM (inactive) | 36.8 µM (inactive) | > 10 µM (inactive) | > 10 µM (inactive) | > 10 µM (inactive) | > 10 µM (inactive) | 7.41 µM (inactive) | > 10 µM (inactive) | > 10 µM (inactive) | > 10 µM (inactive) | > 10 µM (inactive) | 6.32 µM (inactive) | – | – | – | – | – |
| CCC(C)(O)c1cn(-c2cccc(S(=O)(=O)O)c2)nn1 (stereo not drawn) | > 100 µM (inactive) | > 100 µM (inactive) | > 100 µM (inactive) | > 100 µM (inactive) | > 100 µM (inactive) | > 100 µM (inactive) | > 100 µM (inactive) | > 100 µM (inactive) | > 100 µM (inactive) | > 100 µM (inactive) | > 100 µM (inactive) | > 100 µM (inactive) | > 100 µM (inactive) | > 100 µM (inactive) | > 100 µM (inactive) | – | – | – | – | – |
| CNc1cccc(-c2cc(O)c3cc4c(cc3n2)OCO4)c1 | 0.167 µM (active) | 0.267 µM (active) | 0.198 µM (active) | 0.409 µM (active) | 0.664 µM (active) | 0.35 µM (active) | 0.404 µM (active) | 0.553 µM (active) | 0.256 µM (active) | 0.153 µM (active) | 0.177 µM (active) | 0.126 µM (active) | 0.859 µM (active) | 0.322 µM (active) | – | 0.303 µM (active) | 0.199 µM (active) | 0.269 µM (active) | 0.0378 µM (active) | 0.394 µM (active) |
| O=C(O)C(C(=O)O)P(=S)(S)c1ccccc1 (stereo not drawn) | > 100 µM (inactive) | > 100 µM (inactive) | > 100 µM (inactive) | > 100 µM (inactive) | > 100 µM (inactive) | > 100 µM (inactive) | > 100 µM (inactive) | > 100 µM (inactive) | > 100 µM (inactive) | > 100 µM (inactive) | > 100 µM (inactive) | > 100 µM (inactive) | > 100 µM (inactive) | > 100 µM (inactive) | > 100 µM (inactive) | > 100 µM (inactive) | > 100 µM (inactive) | > 100 µM (inactive) | > 100 µM (inactive) | > 100 µM (inactive) |
| N#C/C(=C\c1ccc2[nH]ccc2c1)C(=O)c1ccc(O)c(O)c1 | > 67.8 µM (inactive) | 41.6 µM (inactive) | > 57.4 µM (inactive) | > 52 µM (inactive) | > 57.7 µM (inactive) | 57.3 µM (inactive) | > 71.3 µM (inactive) | > 82.4 µM (inactive) | 59.4 µM (inactive) | 70 µM (inactive) | > 100 µM (inactive) | 9.42 µM (inactive) | > 100 µM (inactive) | 66.7 µM (inactive) | > 80.5 µM (inactive) | 45.7 µM (inactive) | 49.4 µM (inactive) | 44.2 µM (inactive) | 71.8 µM (inactive) | 24.5 µM (inactive) |
